Experiments:
HIV-1 = experiment: Study 202 Phase 2b: virologic response (HIV-1 RNA <50 copies/mL, FDA Snapshot); type: in vivo, human
Description: Subjects with a history of HIV-2, hepatitis B and/or C, cirrhosis of the liver or any known active or chronic active liver disease were excluded from the study.
The primary efficacy endpoint was virologic response at Week 24, defined as HIV-1 RNA<50 copies/mL using the FDA Snapshot Algorithm.

APRI and FIB-4 scores = experiment: Study 202 post-hoc APRI and FIB-4 fibrosis index scores; type: in vivo, human
Protocol: APRI and FIB-4 scores were calculated. Change in score category from baseline (BL) to Weeks 24 and 48 was assessed in patients with non-missing data. Correlations between changes from BL in APRI and FIB-4 scores, and MCP-1 (CCR2 ligand) and sCD14 (inflammatory biomarker) levels were evaluated.

[1] = Study 202: fasting metabolic laboratory parameters; type: in vivo; conditions: through Week 48
Description: All abnormalities in total cholesterol, LDL cholesterol, triglycerides, or glucose were Grade 1 or Grade 2.
Mean baseline values and changes from baseline in HbA1c, HOMA-IR, fasting LDL, fasting HDL, fasting total cholesterol, fasting total cholesterol/HDL ratio, and fasting triglycerides are shown in Table 36.

[2] = All CVC (N = 115), EFV (N = 28)

## CCCCOCCOc1ccc(-c2ccc3c(c2)/C=C(/C(=O)Nc2ccc([S@@+]([O-])Cc4cncn4CCC)cc2)CCCN3CC(C)C)cc1 [CVC, (S)-8-[4-(2-Butoxyethoxy)phenyl]-1-isobutyl-N-(4-{[(1-propyl-1H-imidazol-5-yl)methyl]sulfinyl}phenyl)-1,2,3,4-tetrahydro-1-benzazocine-5-carboxamide]
HIV-1; CVC 100 mg + FTC/TDF, Week 24
  Virologic success (HIV-1 RNA <50 copies/mL): 76%
HIV-1; CVC 100 mg + FTC/TDF, Week 48
  Virologic success (HIV-1 RNA <50 copies/mL): 68%
HIV-1; CVC 200 mg + FTC/TDF, Week 24
  Virologic success (HIV-1 RNA <50 copies/mL): 73%
HIV-1; CVC 200 mg + FTC/TDF, Week 48
  Virologic success (HIV-1 RNA <50 copies/mL): 64%
APRI and FIB-4 scores; Baseline
  Patients in APRI category 0.5-1.5: 14%
  Patients in APRI category >1.5: 2%
  Patients in FIB-4 category 1.45-3.25: 17%
  Patients in FIB-4 category <1.45: 82%
  Patients in FIB-4 category >3.25: 1%
APRI and FIB-4 scores; Baseline, CVC pooled 100/200 mg or EFV
  Patients in APRI category <0.5: 84%
APRI and FIB-4 scores; Week 24
  Patients in APRI category 0.5-1.5: 7%
  Patients in APRI category <0.5: 93%
  Patients in FIB-4 category 1.45-3.25: 7%
  Patients in FIB-4 category <1.45: 93%
  Patients with APRI decreased 1 category from baseline: 14%
  Patients with FIB-4 decreased 1 category from baseline: 13%
APRI and FIB-4 scores; Week 48
  Patients in APRI category 0.5-1.5: 8%
  Patients in APRI category <0.5: 91%
  Patients in APRI category >1.5: 1%
  Patients in FIB-4 category 1.45-3.25: 5%
  Patients in FIB-4 category <1.45: 94%
  Patients in FIB-4 category >3.25: 1%
  Patients with APRI decreased 1 category from baseline: 10%
  Patients with FIB-4 decreased 1 category from baseline: 14%
APRI and FIB-4 scores; all CVC-treated subjects (pooled 100 mg and 200 mg)
  Subjects with improvements in APRI and FIB-4 scores over time: ≥ 10%
[1]; [2]
  Any graded (Grade 1-4) fasting laboratory abnormality, n subjects: 16
  Fasting LDL cholesterol abnormality, any grade, n subjects: 6
  Fasting LDL cholesterol, worst Grade 1, n subjects: 3
  Fasting LDL cholesterol, worst Grade 2, n subjects: 3
  Fasting LDL cholesterol, worst Grade 3, n subjects: 0
  Fasting LDL cholesterol, worst Grade 4, n subjects: 0
  Fasting glucose (serum, high) abnormality, any grade, n subjects: 5
  Fasting glucose (serum, high), worst Grade 1, n subjects: 3
  Fasting glucose (serum, high), worst Grade 2, n subjects: 2
  Fasting glucose (serum, high), worst Grade 3, n subjects: 0
  Fasting glucose (serum, high), worst Grade 4, n subjects: 0
  Fasting laboratory abnormality, worst Grade 1, n subjects: 9
  Fasting laboratory abnormality, worst Grade 2, n subjects: 7
  Fasting laboratory abnormality, worst Grade 3, n subjects: 0
  Fasting laboratory abnormality, worst Grade 4, n subjects: 0
  Fasting total cholesterol abnormality, any grade, n subjects: 8
  Fasting total cholesterol, worst Grade 1, n subjects: 5
  Fasting total cholesterol, worst Grade 2, n subjects: 3
  Fasting total cholesterol, worst Grade 3, n subjects: 0
  Fasting total cholesterol, worst Grade 4, n subjects: 0
  Fasting triglycerides abnormality, any grade, n subjects: 1
  Fasting triglycerides, worst Grade 1, n subjects: 0
  Fasting triglycerides, worst Grade 2, n subjects: 1
  Fasting triglycerides, worst Grade 3, n subjects: 0
  Fasting triglycerides, worst Grade 4, n subjects: 0
[1]; CVC 100 mg (N = 58)
  Any graded (Grade 1-4) fasting laboratory abnormality, n subjects: 4 (7%)
  Fasting LDL cholesterol abnormality, any grade, n subjects: 2 (3%)
  Fasting LDL cholesterol, worst Grade 1, n subjects: 1 (2%)
  Fasting LDL cholesterol, worst Grade 2, n subjects: 1 (2%)
  Fasting LDL cholesterol, worst Grade 3, n subjects: 0
  Fasting LDL cholesterol, worst Grade 4, n subjects: 0
  Fasting glucose (serum, high) abnormality, any grade, n subjects: 0
  Fasting glucose (serum, high), worst Grade 1, n subjects: 0
  Fasting glucose (serum, high), worst Grade 2, n subjects: 0
  Fasting glucose (serum, high), worst Grade 3, n subjects: 0
  Fasting glucose (serum, high), worst Grade 4, n subjects: 0
  Fasting laboratory abnormality, worst Grade 1, n subjects: 3 (5%)
  Fasting laboratory abnormality, worst Grade 2, n subjects: 1 (2%)
  Fasting laboratory abnormality, worst Grade 3, n subjects: 0
  Fasting laboratory abnormality, worst Grade 4, n subjects: 0
  Fasting total cholesterol abnormality, any grade, n subjects: 3 (5%)
  Fasting total cholesterol, worst Grade 1, n subjects: 3 (5%)
  Fasting total cholesterol, worst Grade 2, n subjects: 0
  Fasting total cholesterol, worst Grade 3, n subjects: 0
  Fasting total cholesterol, worst Grade 4, n subjects: 0
  Fasting triglycerides abnormality, any grade, n subjects: 0
  Fasting triglycerides, worst Grade 1, n subjects: 0
  Fasting triglycerides, worst Grade 2, n subjects: 0
  Fasting triglycerides, worst Grade 3, n subjects: 0
  Fasting triglycerides, worst Grade 4, n subjects: 0
[1]; CVC 200 mg (N = 57)
  Any graded (Grade 1-4) fasting laboratory abnormality, n subjects: 12
  Fasting LDL cholesterol abnormality, any grade, n subjects: 4
  Fasting LDL cholesterol, worst Grade 1, n subjects: 2
  Fasting LDL cholesterol, worst Grade 2, n subjects: 2
  Fasting LDL cholesterol, worst Grade 3, n subjects: 0
  Fasting LDL cholesterol, worst Grade 4, n subjects: 0
  Fasting glucose (serum, high) abnormality, any grade, n subjects: 5
  Fasting glucose (serum, high), worst Grade 1, n subjects: 3
  Fasting glucose (serum, high), worst Grade 2, n subjects: 2
  Fasting glucose (serum, high), worst Grade 3, n subjects: 0
  Fasting glucose (serum, high), worst Grade 4, n subjects: 0

Source: patent publication US20180110754A1, “CENICRIVIROC FOR THE TREATMENT OF FIBROSIS” (Tobira Therapeutics, Inc., priority 2015, published 2018)
